Results on 3 compounds are retold here after patent publication US10918657B2 (priority 2013, dated 2021).

For experiment [1], the system named is giant reticulospinal (RS) neurons. Set-up: species or system Petromyzon marinus. The note with it: in vivo.
Experiment [2] has the same test system. More on the design: species or system Petromyzon marinus. The note with it: in vivo. This is another data set of the same source.
Another experiment has as its system lamprey γ-synuclein. The experiment is classed as biochemical, Petromyzon marinus. The note with it: 100 pM synuclein, varying CLR01 concentrations. As to the method:
After purification of GST-tagged lamprey γ-synuclein, GST was cleaved off using thrombin (10 U/mg protein; GE Healthcare). Untagged γ-synuclein was then separated from GST and thrombin using Glutathione Sepharose 4B beads and p-aminobenzamidine agarose ([…]/50 U thrombin; Sigma A7155), respectively, and dialyzed into 0.1M PBS, pH 7.4. Aggregation of the purified lamprey γ-synuclein was analyzed using the thioflavin T (ThT) fluorescence assay and electron microscopy as described previously (Roychaudhuri et al. (2014) J. Mol. Biol. 426: 2422-2441), except that 100 pM synuclein and varying CLR01 concentrations were used.

Another experiment has as its target α-synuclein (Homo sapiens, UniProt P37840). The following applies: cited from earlier work.
Experiment [3] has as its system α-synuclein neurotoxicity. The note with it: in vivo; cited from earlier work.
Experiment [4] concerns Aβ and hyperphosphorylated tau. The note with it: mouse, in vivo; cited from earlier work.

On to “5′-CGC cTg CAT TgC TCT TTg TTT cTC T-3′ [MM MO]”, for which, in experiment [1], the “synuclein immunofluorescence intensity in good survivors” value came out at 26.0±2.4 AU and the “synuclein immunofluorescence intensity in poor survivors” value turned out to be 40.7±3.7 AU. Also, the “survival of the giant RS neurons at the population level (Nissl (+))” value in experiment [2] is given as 60.0±8.0.
Taken in the same sequence, the figures for 5′-[…]-3′ [Con MO] were 25.7±1.9 AU, 42.6±3.5 AU and 56.7±5.7.
On to `O=P(O)(O)Oc1c2c(c(OP(=O)(O)O)c3c1[C@H]1C[C@@H]3c3cc4c(cc31)[C@H]1C[C@@H]4c3ccccc31)[C@H]1C[C@@H]2c2cc3c(cc21)[C@H]1C[C@@H]3c2ccccc21` [CLR01], for which the “inhibition of lamprey γ-synuclein aggregation (ThT fluorescence)” value in the experiment with lamprey γ-synuclein is “inhibited by CLR01 in a dose-dependent manner”. Moreover, in experiment [1], the “synuclein immunofluorescence intensity in "good survivors"” value is listed as 5.6±1.3 AU and the “synuclein immunofluorescence intensity in "poor survivors"” value turned out to be 25.7±3.1 AU. Further, in experiment [2], the “increase in neuronal survival across the entire RS neuron population” value was determined as 22% and the “increase of percentage of Nissl (+) "poor survivors"” value is “more than 4 fold”. At α-synuclein, the “effect on α-synuclein clearance in vitro” value is “facilitates α-synuclein clearance in vitro”; the “effect on α-synuclein self-assembly and toxicity in vitro” value was “inhibits a-synuclein self-assembly and toxicity in vitro”. In addition, in experiment [3], the “effect on neurodegeneration and survival in zebrafish model” value was “reduces neurodegeneration and improves survival”. The “effect on accumulation of Aβ and hyperphosphorylated tau” value in experiment [4] is “reduce accumulation of Aβ and hyperphosphorylated tau”.
